According to patent EP0156233A2, “Use of leukotriene antagonists for producing cytoprotective pharmaceutical compositions and process for producing cytoprotective pharmaceutical compositions” (Merck & Co., Inc., priority 1984, dated 1985):

Test system: S.D. rats
Experiment: Indomethacin-Induced Ulcer Assay (assay B)
Assay type: in vivo
Conditions: 15 min prior to indomethacin 10 mg/kg p.o., 24 hr. fasted rats, sacrificed four hours later
Method: B. Indomethacin-Induced Ulcer Assay
Indomethacin, 10 mg/kg p.o., is used to induce ulcers in 24 hr. fasted S.D. rats. Fifteen minutes prior to indomethacin administration, groups of rats each receive either an aqueous vehicle (5% wt. methylcellulose) or the test compound at various doses perorally. Four hours later the animals are sacrificed and stomach mucosae are examined for resulting ulcers.
Following the procedure of assay B (Indomethacin-Induced Ulcer Assay), various compounds were tested for ulcer inhibition.

SMILES	% Inhib. (Dose 0.1 mg/kg p.o.) [%]	% Inhib. (Dose 1 mg/kg p.o.) [%]	% Inhib. (Dose 10 mg/kg p.o.) [%]	% Inhib. (Dose 30 mg/kg p.o.) [%]	other results
CCCc1c(OCCCOc2ccc([C@H](O)[C@@H](C)CC(=O)[O-])cc2)ccc(C(C)=O)c1O.[Na+] (relative stereo) [Example 103, Sodium (beta S^*, gamma R^*) 4-(3-(4-acetyl-3-hydroxy-2-propylphenoxy)propyloxy)-gamma-hydroxy-beta-methylbenzenebutanoate]	61.1	76.1	74.1	–	–
CCCc1c(OCCCS(=O)(=O)c2ccc([C@H](O)[C@@H](C)CC(=O)O)cc2)ccc(C(C)=O)c1O (relative stereo) [Example 77, (Beta S^*, gamma R^*) sodium 4-(3-(4-acetyl-3-hydroxy-2-propylphenoxy)propylsulfonyl)-gamma-hydroxy-beta-methylenzenebutanoate]	–	–	–	46.5	–
CCCc1c(OCCCSc2ccc([C@H](O)[C@@H](C)CC(=O)O)cc2)ccc(C(C)=O)c1O (relative stereo) [Example 78, (Beta S^*, gamma R^*)-sodium 4-(3-(4-acetyl-3-hydroxy-2-propylphenoxy)propylthio)-gamma-hydroxy-beta-methyl-benzenebutanoate]	27.1	70.1	76.1	–	% Inhib. (Dose 0.03 mg/kg p.o.): 14.1%; % Inhib. (Dose 0.3 mg/kg p.o.): 50.1%; % Inhib. (Dose 3 mg/kg p.o.): 74.1%
CCCc1c(OCCCSc2ccc(C(=O)CCC#N)cc2)ccc(C(C)=O)c1O [Example 40, 4-(3-(4-acetyl-3-hydroxy-2-propyl-phenoxy)propylthio)-gamma-oxobenzenebutyronitrile]	–	–	–	89.4	–
CCCc1c(OCCCS(=O)(=O)c2ccc(C(=O)CCC(=O)O)cc2)ccc(C(C)=O)c1O [Example 29, 4-(3-(4-Acetyl-3-hydroxy-2-propylphenoxy)-propylsulfonyl)-gamma-oxobenzenebutanoic acid]	–	–	–	78.9	–
